biological target: T1, USP5 (Homo sapiens, UniProt P45974); experiment: USP5 activity assay; assay type: biochemical; conditions: 400 nM Ub-AMC, 300 pM enzyme; pre-incubated 30 minutes at 25° C., 60 minutes at 37° C.; sigmoidal fit; read-out: USP 5
T1 sequence (P45974 1-858): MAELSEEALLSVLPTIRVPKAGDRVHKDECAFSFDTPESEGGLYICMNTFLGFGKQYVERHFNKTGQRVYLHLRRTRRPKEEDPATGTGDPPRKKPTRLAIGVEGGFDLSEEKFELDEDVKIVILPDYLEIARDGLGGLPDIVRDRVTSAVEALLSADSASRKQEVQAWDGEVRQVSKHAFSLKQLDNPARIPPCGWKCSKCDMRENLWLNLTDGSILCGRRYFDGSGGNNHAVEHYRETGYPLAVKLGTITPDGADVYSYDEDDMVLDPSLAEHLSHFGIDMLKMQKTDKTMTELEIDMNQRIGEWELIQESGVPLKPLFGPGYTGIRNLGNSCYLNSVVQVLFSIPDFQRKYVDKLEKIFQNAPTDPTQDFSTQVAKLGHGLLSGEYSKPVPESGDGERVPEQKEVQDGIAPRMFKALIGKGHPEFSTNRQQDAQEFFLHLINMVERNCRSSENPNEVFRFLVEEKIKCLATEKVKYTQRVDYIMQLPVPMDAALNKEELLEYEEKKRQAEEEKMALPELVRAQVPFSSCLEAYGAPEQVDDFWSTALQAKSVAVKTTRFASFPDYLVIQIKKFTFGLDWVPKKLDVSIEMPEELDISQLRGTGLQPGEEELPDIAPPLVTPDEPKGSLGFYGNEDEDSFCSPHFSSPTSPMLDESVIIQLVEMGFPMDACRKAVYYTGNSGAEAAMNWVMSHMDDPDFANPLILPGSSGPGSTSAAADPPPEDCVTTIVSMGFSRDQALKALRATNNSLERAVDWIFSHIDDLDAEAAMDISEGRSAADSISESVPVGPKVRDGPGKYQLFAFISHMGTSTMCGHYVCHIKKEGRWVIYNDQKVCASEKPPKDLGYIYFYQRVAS
Procedure: USP5 was diluted in USP buffer (50 mM Tris HCl; 0.5 mM EDTA; 5 mM DTT; 0.01% Triton X-100; Bovine Serum Albumin 0.05 mg.ml^−1 pH 7.6). Compounds stocks (100 mM) were stored at -20° C. in DMSO.
(§1) Reactions were performed as duplicates in Black LJL 96 well plates (HE microplates; Molecular Devices; 20 μl final reaction volume). The substrate concentration for USP5 was 400 nM Ub-AMC (Boston Biochem). The concentrations of the enzyme (USP5) in specificity assays was 300 pM. The concentrations were determined in order to perform specificity assays under initial velocities at fixed substrate concentration. Compounds were pre-incubated with enzymes for 30 minutes at 25° C. Reactions were initiated by addition of substrate to the plates containing the enzymes (+/− compounds) diluted in assay buffer. Reactions were incubated for 60 minutes at 37° C. Reactions were stopped by adding acetic acid (100 mM final). Readings were performed on a Pherastar Fluorescent Reader (BMG). λ Emission 380 nm; λ Excitation=460 nm. Data (mean values +/− standard deviation) were analyzed as % of control (no compound) and plotted as percentage versus the Log of the compound concentration using GraphPad (Prism). Data were fitted to a sigmoidal model (variable slope).

IC50	Molecule
1540 nM	6-(7)-Chloro-1-methyl-2,3,4,10,10a-pentaaza-cyclopenta[b]fluoren-9-one [Example 3/A]
4800 nM	CCc1nnc2nc3c(nn12)C(=O)c1cc(OC)c(OC)cc1-3 [Example 5b/A, 1-Ethyl-6,7-dimethoxy-2,3,4,10,10a-pentaaza-cyclopenta[b]fluoren-9-one]
3900 nM	CC(C)c1nnc2nc3c(nn12)C(=O)c1ccccc1-3 [Example 1l/A, 1-lsopropyl-2,3,4,10,10a-pentaaza-cyclopenta[b]fluoren-9-one]

biological target: T2, USP7 (Homo sapiens, UniProt Q93009); experiment: USP7 activity assay; assay type: biochemical; conditions: 400 nM Ub-AMC, 152 pM enzyme; pre-incubated 30 minutes at 25° C., 60 minutes at 37° C.; sigmoidal fit; read-out: USP 7
T2 construct: His tag (pFastBac-HT vector) (N); made in house; host or cells: Sf9 or High Five insect cells (baculovirus)
T2 sequence (Q93009 whole entry): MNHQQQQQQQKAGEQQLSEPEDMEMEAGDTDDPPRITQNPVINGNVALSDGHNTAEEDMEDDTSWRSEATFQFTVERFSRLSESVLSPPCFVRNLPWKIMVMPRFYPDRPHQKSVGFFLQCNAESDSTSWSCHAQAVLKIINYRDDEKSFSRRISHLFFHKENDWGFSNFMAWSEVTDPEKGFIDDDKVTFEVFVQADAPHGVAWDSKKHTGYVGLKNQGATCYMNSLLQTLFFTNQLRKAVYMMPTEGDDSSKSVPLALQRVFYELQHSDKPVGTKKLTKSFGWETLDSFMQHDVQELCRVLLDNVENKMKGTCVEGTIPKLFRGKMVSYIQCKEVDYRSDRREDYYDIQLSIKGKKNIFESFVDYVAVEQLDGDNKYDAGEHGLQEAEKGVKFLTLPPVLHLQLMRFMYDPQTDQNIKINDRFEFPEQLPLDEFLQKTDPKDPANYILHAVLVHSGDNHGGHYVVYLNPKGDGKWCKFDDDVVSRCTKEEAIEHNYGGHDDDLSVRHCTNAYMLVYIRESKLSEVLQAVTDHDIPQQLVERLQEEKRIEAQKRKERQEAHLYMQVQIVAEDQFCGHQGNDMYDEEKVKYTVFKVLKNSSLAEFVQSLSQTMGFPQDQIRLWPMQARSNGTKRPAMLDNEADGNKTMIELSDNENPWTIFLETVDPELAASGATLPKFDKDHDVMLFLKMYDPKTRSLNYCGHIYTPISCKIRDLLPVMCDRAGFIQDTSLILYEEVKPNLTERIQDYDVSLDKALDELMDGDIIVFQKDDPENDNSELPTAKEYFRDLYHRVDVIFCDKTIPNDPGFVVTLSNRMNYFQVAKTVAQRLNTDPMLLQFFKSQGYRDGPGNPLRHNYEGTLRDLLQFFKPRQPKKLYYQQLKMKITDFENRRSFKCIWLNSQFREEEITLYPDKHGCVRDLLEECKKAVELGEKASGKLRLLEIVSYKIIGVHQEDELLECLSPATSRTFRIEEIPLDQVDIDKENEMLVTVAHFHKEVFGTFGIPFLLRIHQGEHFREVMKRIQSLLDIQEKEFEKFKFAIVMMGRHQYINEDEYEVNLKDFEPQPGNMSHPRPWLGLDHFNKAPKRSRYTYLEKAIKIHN
Text: The cDNA encoding USP7 was obtained by PCR amplification from placenta mRNA. USP7 cDNA was subcloned by PCR into a baculovirus expression vector (pFastBac-HT; Invitrogen). A cDNA encoding a mutated USP7 was generated by mutagenic PCR. The corresponding protein encodes a cysteine to alanine substitution at residue 223. The sequences were ascertained by sequencing of the entire open reading frame. Bacmids encoding USP7 were generated following DH10bac transposition. The corresponding bacmids were transfected into insect cells (Sf9). Viruses were recovered from culture supernatant and amplified twice. Insect cells (Sf9 or High Five; lnvitrogen) were infected for 72 hours. Total cell lysates were harvested and lyzed in lysis buffer (Tris HCl 50 mM pH 7.6; 0.75 % NP40; 500 mM NaCl; 10% glycerol; 1 mM DTT; 10 mM imidazole; Protease Inhibitor Cocktail; AEBSF 20 μg.ml^−1; Aprotinin 10 μg.ml^−1). Proteins were affinity purified on metal affinity resins (Talon Metal affinity resin; BD Biosciences). Bound materials were extensively washed in wash buffer (50 mM Sodium Phosphate pH 7.0; 300 mM NaCl; 10 mM imidazole; 0.5% Triton X-100; 10% glycerol) and eluted from the resin in 250 mM imidazole-containing wash buffer. Proteins were dialyzed in dialysis buffer (Tris HCl pH 7.6 20 mM; NaCl 200 mM; DTT 1 mM; EDTA 1 mM; 10% Glycerol). Proteins purifications were analyzed on 4-12% NuPAGE (Invitrogen).
USP7 was diluted in USP buffer (50 mM Tris HCl; 0.5 mM EDTA; 5 mM DTT; 0.01 % Triton X-100; Bovine Serum Albumin 0.05 mg.ml^−1 pH 7.6). Compounds stocks (100 mM) were stored at −20° C. in DMSO. Compounds were tested at the following final concentrations: 100 μM; 33.3 μM; 11.1 μM; 3.7 μM; 1.23 μM; 412 nM; 137 nM; 45.7 nM; 15.2 nM; 5 nM.
as §1, with “USP7” for “USP5”, “Ub-AMC (Chem. Biol., 2003, 10, p. 837-846)” for “Ub-AMC”, “(USP7)” for “(USP5)”, “152” for “300”

IC50	Molecule
2800 nM	6-(7)-Chloro-1-methyl-2,3,4,10,10a-pentaaza-cyclopenta[b]fluoren-9-one [Example 3/A]
820 nM	CC(C)c1nnc2nc3c(nn12)-c1ccccc1C3=O [Example 1l/B, 3-Isopropyl-1,2,3a,4,10-pentaaza-cyclopenta[b]fluoren-9-one]
13300 nM	CCc1nnc2nc3c(nn12)C(=O)c1cc(OC)c(OC)cc1-3 [Example 5b/A, 1-Ethyl-6,7-dimethoxy-2,3,4,10,10a-pentaaza-cyclopenta[b]fluoren-9-one]
3080 nM	CCc1nnc2nc3c(nn12)-c1c(OC)ccc(OC)c1C3=O [Example 6/B, 3-Ethyl-5,8-dimethoxy-1,2,3a,4,10-pentaaza-cyclopenta[b]fluoren-9-one]
1050 nM	CCc1nnc2nc3c(nn12)-c1cc(OC)c(OC)cc1C3=O [Example 5b/B, 3-Ethyl-6,7-dimethoxy-1,2,3a,4,10-pentaaza-cyclopenta[b]fluoren-9-one]
1200 nM	COCCOCCOCc1nnc2nc3c(nn12)C(=O)c1ccccc1-3 [Example 1n/A, 1-[2-(2-Methoxy-ethoxy)-ethoxymethyl]-2,3,4,10,10a-pentaaza-cyclopenta[b]fluoren-9-one]
525 nM	COc1cc2c(cc1OC)-c1nn3c(C)nnc3nc1C2=O [Example 5a/B, 6,7-Dimethoxy-3-methyl-1,2,3a,4,10-pentaaza-cyclopenta[b]fluoren-9-one]
936 nM	CCCc1nnc2nc3c(nn12)-c1cc(OC)c(OC)cc1C3=O [Example 5c/B, 6,7-Dimethoxy-3-propyl-1,2,3a,4,10-pentaaza-cyclopenta[b]fluoren-9-one]
226 nM	O=C1c2ccccc2-c2nn3c(C(F)(F)F)nnc3nc21 [Example 1m/B, 3-Trifluoromethyl-1,2,3a,4,10-pentaaza-cyclopenta[b]fluoren-9-one]

— patent US20090181972A1, “Novel Inhibitors of Cysteine Proteases, the Pharmaceutical Compositions Thereof and their Therapeutic Applications” (priority 2005, published 2009)
